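Five compound concentrations were applied to cells in 96-well plates for 48 hours; endpoints were derived by simple linear interpolation of the resulting dose-response curve. The concentration for 50% growth inhibition is given as GI50.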 Calls of active or inactive are those of the source. Rule as the data show it: active = GI50 up to about 1.1 µM and inactive = higher.
What was measured:
Assay in all cases: NCI anticancer screen, dose series, 48 h
HOP-18 = test system: HOP-18
KM-20L2 = test system: KM-20L2
DLD-1 = test system: DLD-1
XF498 = test system: XF498
SNB-78 = test system: SNB-78
M19-MEL = test system: M19-MEL
DMS-114 = test system: DMS-114
LXFL 529 = test system: LXFL 529
RXF 631 = test system: RXF 631

| SMILES | GI50 (HOP-18) | GI50 (KM-20L2) | GI50 (DLD-1) | GI50 (XF498) | GI50 (SNB-78) | GI50 (M19-MEL) | GI50 (DMS-114) | GI50 (LXFL 529) | GI50 (RXF 631) |
| --- | --- | --- | --- | --- | --- | --- | --- | --- | --- |
| CC1=C(C(=O)Nc2ccc(Cl)c(C(=O)OC(C)C)c2)SCCO1 | 81.3 µM (inactive) | 33.9 µM (inactive) | 74 µM (inactive) | 62.4 µM (inactive) | 99.5 µM (inactive) | 26.6 µM (inactive) | – | – | – |
| S=C(Nc1ccccc1)N1N=C2c3ccccc3CC[C@H]2[C@@H]1c1ccccc1 | 6.21 µM (inactive) | 3.21 µM (inactive) | 9.42 µM (inactive) | > 100 µM (inactive) | 0.708 µM (active) | 1.83 µM (inactive) | 2.29 µM (inactive) | 5.52 µM (inactive) | – |
| CCCCOC(=O)CNC(=O)OCCCCC#CC#CCCCCOC(=O)NCC(=O)OCCCC | 69.8 µM (inactive) | > 100 µM (inactive) | > 100 µM (inactive) | > 100 µM (inactive) | > 100 µM (inactive) | > 100 µM (inactive) | > 100 µM (inactive) | > 100 µM (inactive) | – |
| CCOc1ccccc1NC(=O)CCC(=O)OC | > 100 µM (inactive) | > 100 µM (inactive) | > 83 µM (inactive) | > 100 µM (inactive) | > 100 µM (inactive) | > 100 µM (inactive) | > 61.1 µM (inactive) | > 100 µM (inactive) | – |
| C/C=C/C1(C)/C(=N\O)C(C)(CCC)C(=O)N1O (stereo not given) | – | > 100 µM (inactive) | > 100 µM (inactive) | > 100 µM (inactive) | > 100 µM (inactive) | > 100 µM (inactive) | > 100 µM (inactive) | > 100 µM (inactive) | – |
| Cn1cc(NC(=O)c2cc(NC(=O)CCCCCCCCCC(=O)Nc3cc(C(=O)Nc4cc(C(=O)NCCC(=N)N)n(C)c4)n(C)c3)cn2C)cc1C(=O)NCCC(=N)N | 35.3 µM (inactive) | 31.2 µM (inactive) | 34.2 µM (inactive) | 32.9 µM (inactive) | 37.2 µM (inactive) | 34.1 µM (inactive) | 84.9 µM (inactive) | 24.5 µM (inactive) | – |
| N#C/C(=C\c1ccccc1)C(NO)Nc1ccccc1 (stereo not given) | > 100 µM (inactive) | > 100 µM (inactive) | > 100 µM (inactive) | – | 83.2 µM (inactive) | > 100 µM (inactive) | – | 60.3 µM (inactive) | – |
| Nc1nc(Cl)cc(NCCCCCCNc2cc(Cl)nc(N)n2)n1 | > 100 µM (inactive) | > 100 µM (inactive) | > 100 µM (inactive) | 30.6 µM (inactive) | – | > 100 µM (inactive) | – | 32.7 µM (inactive) | > 100 µM (inactive) |
| O=C(Nc1nccs1)c1cc(C2=CC=CC([N+](=O)[O-])C=C2)nc(S)n1 (stereo not given) | > 100 µM (inactive) | > 100 µM (inactive) | – | – | > 100 µM (inactive) | > 100 µM (inactive) | > 100 µM (inactive) | > 100 µM (inactive) | – |
| O=C(CC(=O)C1CCOC1=O)C(=O)Nc1ccc(Cl)cc1Cl (stereo not given) | – | > 100 µM (inactive) | > 100 µM (inactive) | > 100 µM (inactive) | > 100 µM (inactive) | > 100 µM (inactive) | > 100 µM (inactive) | > 100 µM (inactive) | – |
| CCCNCCCC(NC(C)=O)C(=O)NCc1ccccc1 (stereo not given) | – | > 100 µM (inactive) | > 100 µM (inactive) | > 100 µM (inactive) | > 100 µM (inactive) | > 100 µM (inactive) | > 100 µM (inactive) | > 100 µM (inactive) | > 100 µM (inactive) |
| CCOP(=O)(OCC)OC1C=CC2CCC1C2 (stereo not given) | > 100 µM (inactive) | > 100 µM (inactive) | > 100 µM (inactive) | > 100 µM (inactive) | > 100 µM (inactive) | – | 87.9 µM (inactive) | > 100 µM (inactive) | > 100 µM (inactive) |
| NC(=O)N/N=C1/CCCC/C1=C\c1ccccc1 | > 100 µM (inactive) | > 100 µM (inactive) | > 100 µM (inactive) | – | > 100 µM (inactive) | > 100 µM (inactive) | > 100 µM (inactive) | > 100 µM (inactive) | > 100 µM (inactive) |
| O=C(Nc1ccc(Cl)c(Cl)c1)C(=O)C(C(=O)c1ccccc1-c1ccccc1)C1OC(=O)c2ccccc21 (stereo not given) | – | 22.9 µM (inactive) | 14.8 µM (inactive) | 12.8 µM (inactive) | 10.4 µM (inactive) | 13.1 µM (inactive) | 12.1 µM (inactive) | 8.81 µM (inactive) | 14.3 µM (inactive) |
| C#Cc1cc(CN(CC(=O)OC(C)(C)C)CC(=O)OC(C)(C)C)nc(CN(CC(=O)OC(C)(C)C)CC(=O)OC(C)(C)C)c1 | – | 5.43 µM (inactive) | – | 11.6 µM (inactive) | 6.14 µM (inactive) | 6.4 µM (inactive) | 3.26 µM (inactive) | 3.46 µM (inactive) | 11.9 µM (inactive) |

Source: ChEMBL document CHEMBL1201862, “PubChem BioAssay data set” (2004)
